Results as given in patent US6967196B1, “Sulfonamide compounds and uses thereof” (Bristol-Myers Squibb Company, priority 1999, dated 2005).
Where a name gives a salt, the structure may show the parent alone. Read-outs that look alike come from different tables or passages of the source.

System: amyloid β production in transfected H4 (human neuroglioma) cells stably expressing APP constructs
Test: In vitro cell-based assay of inhibitors of amyloid β production (ELISA)
Conditions: transfected H4 cells stably expressing APP, approximately 16 hours incubation, amyloid β in medium by ELISA, read-out: ACTIVITY (IC50, inhibition of amyloid β production)
Procedure, shortened: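 Aβ secreted into the medium was read by sandwich ELISA (monoclonal capture for the Aβ C-terminus, polyclonal detection for the N-terminus) and calibrated on a standard curve. Before this, APP-expressing H4 cells were exposed to compound for ~16 h at an initial 10-100 μM, with actives then retested in dose-response.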

Compound | IC50 (Homo sapiens, 16 h) | IC50
O=S(=O)(c1ccc(Cl)cc1)N(Cc1ccccc1OCCCN1CCCCC1)c1ccc(Br)cc1 [Example 988, N-(4-bromophenyl)-4-chloro-N-{2-[3-(1-piperidinyl)propoxy]benzyl}benzenesulfonamide hydrochloride] | > 500 nM | –
O=S(=O)(c1ccc(Cl)cc1)N(Cc1cc(Cl)ccc1C#CCCN1CCCCC1)c1ccccc1 [Example 990, 4-chloro-N-{5-chloro-2-[4-(1-piperidinyl)-1-butynyl]benzyl}-N-phenylbenzenesulfonamide hydrochloride] | > 500 nM | –
C#Cc1ccccc1CN(c1ccccc1)S(=O)(=O)c1ccc(Cl)cc1 [Example 991, 4-chloro-N-(2-ethynylbenzyl)-N-phenylbenzenesulfonamide] | > 500 nM | –
O=S(=O)(Cc1ccccc1)N(Cc1ccccc1OCCCN1CCCCC1)c1cc(Cl)ccc1Cl [Example 992, N-(2,5-dichlorophenyl)(phenyl)-N-{2-[3-(1-piperidinyl)propoxy]benzyl}methanesulfonamide hydrochloride] | > 500 nM | –
O=S(=O)(c1ccc(Cl)cc1)N(Cc1ccccc1OCCCNC1CCCCC1)c1ccccc1 [Example 996, 4-chloro-N-{2-[3-(cyclohexylamino)propoxy]benzyl}-N-phenylbenzenesulfonamide hydrochloride] | > 500 nM | –
O=[N+]([O-])c1ccc(SCCCOc2ccccc2CN(c2cc(F)ccc2F)S(=O)(=O)c2ccc(Cl)cc2)cc1 [Example 997, 4-chloro-N-(2,5-difluorophenyl)-N-(2-{3-[(4-nitrophenyl)sulfanyl]propoxy}benzyl)benzenesulfonamide] | > 500 nM | –
O=[N+]([O-])c1ccc(CN(Cc2ccccc2OCCCN2CCCCC2)S(=O)(=O)c2ccc(Cl)cc2)cc1 [Example 998, 4-chloro-N-(4-nitrobenzyl)-N-{2-[3-(1-piperidinyl)propoxy]benzyl}benzenesulfonamide hydrochloride] | > 500 nM | –
O=S(=O)(c1ccc(Cl)cc1)N(Cc1ccccc1OCCCN1CCc2ccccc2C1)c1ccccc1 [Example 999, 4-chloro-N-{2-[3-(3,4-dihydro-2(1H)-isoquinolinyl)propoxy]benzyl}-N-phenylbenzenesulfonamide] | > 500 nM | –
C=CCOc1ccccc1CN(c1ccccc1)S(=O)(=O)c1ccc(Cl)cc1 [Example 1001, N-[2-(allyloxy)benzyl]-4-chloro-N-phenylbenzenesulfonamide] | > 500 nM | –
O=S(=O)(c1ccc(Cl)cc1)N(Cc1ccccc1OCCCN1CCCCC1)C1CC1 [Example 1003, 4-chloro-N-cyclopropyl-N-{2-[3-(1-piperidinyl)propoxy]benzyl}benzenesulfonamide hydrochloride] | > 500 nM | –
O=S(=O)(c1ccccc1)N(Cc1ccccc1CCCCN1CCCCC1)c1ccccc1 [Example 1005, N-phenyl-N-{2-[4-(1-piperidinyl)butyl]benzyl}benzenesulfonamide] | > 500 nM | –
O=C(OC[C@H](c1ccccc1)N(c1cc(F)ccc1F)S(=O)(=O)c1ccc(Cl)cc1)c1cccnc1 [Example 1006, (2S)-2-({[(4-chlorophenyl)sulfonyl]-2,5-difluoroanilino}-2-phenylethyl nicotinate] | – | > 500 nM
C[C@H](c1ccc(F)cc1CCCC1=NCCCN1)N(c1cc(F)ccc1F)S(=O)(=O)c1ccc(Cl)cc1 [Example 1008, 4-chloro-N-(2,5-difluorophenyl)-N-((1R)-1-{4-fluoro-2-[3-(1,4,5,6-tetrahydro-2-pyrimidinyl)propyl]phenyl}ethyl)benzenesulfonamide hydrochloride] | > 500 nM | –
O=S(=O)(c1ccc(Cl)cc1)N(Cc1cc(Cl)ccc1OCCCN1CCC(O)CC1)c1ccccc1 [Example 1011, 4-chloro-N-{5-chloro-2-[3-(4-hydroxy-1-piperidinyl)propoxy]benzyl}-N-phenylbenzenesulfonamide hydrochloride] | > 500 nM | –
O=S(=O)(c1ccc(Cl)cc1)N(Cc1ccccc1OCCCN1CCCCC1)C1CCc2ccccc21 (stereo not drawn) [Example 1012, 4-chloro-N-(2,3-dihydro-1H-inden-1-yl)-N-{2-[3-(1-piperidinyl)propoxy]benzyl}benzenesulfonamide hydrochloride] | > 500 nM | –
O=S(=O)(c1ccc(Cl)cc1)N(CCc1ccccc1O)c1ccccc1 [Example 1015, 4-chloro-N-[2-(2-hydroxyphenyl)ethyl]-N-phenylbenzenesulfonamide] | > 500 nM | –
O=S(=O)(c1ccc(Cl)cc1)N(Cc1ccccc1CCCCO)c1ccccc1 [Example 1016, 4-chloro-N-[2-(4-hydroxybutyl)benzyl]-N-phenylbenzenesulfonamide] | > 500 nM | –
O=S(=O)(c1ccc(Cl)cc1)N(Cc1ccccc1OCCCS)c1ccccc1 [Example 1018, 4-chloro-N-phenyl-N-[2-(3-sulfanylpropoxy)benzyl]benzenesulfonamide] | > 500 nM | –

Compound | IC50 (Homo sapiens, 16 h) | IC50
CSc1ccc(N(Cc2ccccc2OCCCN2CCCCC2)S(=O)(=O)c2ccc(Cl)cc2)cc1 [Example 1019, 4-chloro-N-[4-(methylsulfanyl)phenyl]-N-{2-[3-(1-piperidinyl)propoxy]benzyl}benzenesulfonamide hydrochloride] | > 500 nM | –
O=S(=O)(c1ccc(Cl)cc1)N(Cc1ccccc1OCCCN1CCCCC1)C1Cc2ccccc2C1 [Example 1020, 4-chloro-N-(2,3-dihydro-1H-inden-2-yl)-N-{2-[3-(1-piperidinyl)propoxy]benzyl}benzenesulfonamide hydrochloride] | > 500 nM | –
CC(C)(C)OC(=O)n1c(-c2ccccc2OCCCN2CCCCC2)cc2ccccc21 [Example 1021, tert-butyl 2-{2-[3-(1-piperidinyl)propoxy]phenyl}-1H-indole-1-carboxylate trifluoroacetate] | > 500 nM | –
CC(=O)Nc1nc(C)c(S(=O)(=O)N(Cc2ccccc2OCCCN2CCCCC2)c2cc(Cl)ccc2Cl)s1 [Example 1022, N-{5-[(2,5-dichloro{2-[3-(1-piperidinyl)propoxy]benzyl}anilino)sulfonyl]-4-methyl-1,3-thiazol-2-yl}acetamide hydrochloride] | – | > 500 nM
O=S1(=O)c2cccc3cccc(c23)N1Cc1ccccc1OCCCN1CCCCC1 [Example 1024, 2-{2-[3-(1-piperidinyl)propoxy]benzyl}-2H-naphtho[1,8-cd]isothiazol 1,1-dioxide hydrochloride] | > 500 nM | –
O=S(=O)(c1ccc(Cl)cc1)N(Cc1c(OCCCN2CCCCC2)ccc2ccccc12)c1cc(F)ccc1F [Example 1025, 4-chloro-N-(2,5-difluorophenyl)-N-(2-{2-[3-(1-piperidinyl)propoxy]-1-naphthyl}methyl)benzenesulfonamide hydrochloride] | – | > 500 nM
O=S(=O)(c1ccc(Cl)cc1)N(Cc1ccccc1OCCCCCCl)c1ccccc1 [Example 1026, 4-chloro-N-{2-[(5-chloropentyl)oxy]benzyl}-N-phenylbenzenesulfonamide] | > 500 nM | –
CS(=O)(=O)c1ccccc1N(Cc1ccccc1OCCCN1CCCCC1)S(=O)(=O)c1ccc(Cl)cc1 [Example 1027, 4-chloro-N-[2-(methylsulfonyl)phenyl]-N-{2-[3-(1-piperidinyl)propoxy]benzyl}benzenesulfonamide hydrochloride] | > 500 nM | –
COc1ccc(SCCCOc2ccccc2CN(c2cc(F)ccc2F)S(=O)(=O)c2ccc(Cl)cc2)cc1 [Example 1029, 4-chloro-N-(2,5-difluorophenyl)-N-(2-{3-[(4-methoxyphenyl)sulfanyl]propoxy}benzyl)benzenesulfonamide] | > 500 nM | –
O=S(=O)(c1ccc(Cl)cc1)N(Cc1ccccc1OCc1ccncc1)c1ccccc1 [Example 1030, 4-chloro-N-phenyl-N-[2-(4-pyrdinylmethoxy)benzyl]benzenesulfonamide hydrochloride] | – | > 500 nM
O=S(=O)(c1ccccc1)N(Cc1ccccc1CCCN1CCCCC1)c1ccccc1 [Example 1031, N-phenyl-N-{2-[3-(1-piperidinyl)propyl]benzyl}benzenesulfonamide] | > 500 nM | –
O=S(=O)(c1ccc(F)cc1)n1c(-c2ccccc2OCCCN2CCCCC2)cc2ccccc21 [Example 1032, 2-{1-[(4-flurophenyl}sulfonyl]-1H-indol-2-yl}phenyl 3-(1-piperidinyl)propyl ether trifluoroacetate] | – | > 500 nM
O=C(c1ccc(OC(F)(F)F)cc1)N1CCCCC1CCOc1ccccc1CN(c1cc(F)ccc1F)S(=O)(=O)c1ccc(Cl)cc1 (stereo not drawn) [Example 1033, 4-chloro-N-(2,5-difluorophenyl)-N-[2-(2-{1-[4-(trifluoromethoxy)benzoyl]-2-piperidinyl}ethoxy)benzyl]benzenesulfonamide] | > 500 nM | –
CS(=O)(=O)c1cccc(N(Cc2ccccc2OCCCN2CCCCC2)S(=O)(=O)c2ccc(Cl)cc2)c1 [Example 1036, 4-chloro-N-[3-(methylsulfonyl)phenyl]-N-{2-[3-(1-piperidinyl)propoxy]benzyl}benzenesulfonamide hydrochloride] | > 500 nM | –
C[N+]1(CCCOc2ccccc2CN(c2cc(Cl)ccc2Cl)S(=O)(=O)c2ccc(Cl)cc2)CCCCC1 [Example 1038, 1-{3-[2-((2,5-dichloro[(4-chlorophenyl)sulfonyl]anilino}methyl)phenoxy]propyl}-1-methylpiperidinium iodide] | – | > 500 nM
O=S(=O)(c1ccc(Cl)cc1)N(Cc1ccccc1OCCCBr)c1ccccc1 [Example 1039, N-[2-(3-bromopropoxy)benzyl]-4-chloro-N-phenylbenzenesulfonamide] | > 500 nM | –
O=S(=O)(c1ccc(Cl)cc1)N(Cc1ccccc1C#CCCO)c1ccccc1 [Example 1040, 4-chloro-N-[2-(4-hydroxy-1-butynyl)benzyl}-N-phenylbenzenesulfonamide] | > 500 nM | –
O=C(CCc1ccccc1CN(c1ccccc1)S(=O)(=O)c1ccccc1)N1CCCCC1 [Example 1041, N-{2-[3-oxo-3-(1-piperidinyl)propyl]benzyl}-N-phenylbenzenesulfonamide] | > 500 nM | –
